The values that follow come from US7638508B2, “Glucocorticosteroid compound having anti-inflammatory activity” (Glaxo Group Limited, priority 2003, dated 2009).

Holding throughout (type): cell-based
The target of assay [1] is T1, glucocorticoid receptor (Homo sapiens, UniProt P04150).
T1 sequence (P04150 1-777): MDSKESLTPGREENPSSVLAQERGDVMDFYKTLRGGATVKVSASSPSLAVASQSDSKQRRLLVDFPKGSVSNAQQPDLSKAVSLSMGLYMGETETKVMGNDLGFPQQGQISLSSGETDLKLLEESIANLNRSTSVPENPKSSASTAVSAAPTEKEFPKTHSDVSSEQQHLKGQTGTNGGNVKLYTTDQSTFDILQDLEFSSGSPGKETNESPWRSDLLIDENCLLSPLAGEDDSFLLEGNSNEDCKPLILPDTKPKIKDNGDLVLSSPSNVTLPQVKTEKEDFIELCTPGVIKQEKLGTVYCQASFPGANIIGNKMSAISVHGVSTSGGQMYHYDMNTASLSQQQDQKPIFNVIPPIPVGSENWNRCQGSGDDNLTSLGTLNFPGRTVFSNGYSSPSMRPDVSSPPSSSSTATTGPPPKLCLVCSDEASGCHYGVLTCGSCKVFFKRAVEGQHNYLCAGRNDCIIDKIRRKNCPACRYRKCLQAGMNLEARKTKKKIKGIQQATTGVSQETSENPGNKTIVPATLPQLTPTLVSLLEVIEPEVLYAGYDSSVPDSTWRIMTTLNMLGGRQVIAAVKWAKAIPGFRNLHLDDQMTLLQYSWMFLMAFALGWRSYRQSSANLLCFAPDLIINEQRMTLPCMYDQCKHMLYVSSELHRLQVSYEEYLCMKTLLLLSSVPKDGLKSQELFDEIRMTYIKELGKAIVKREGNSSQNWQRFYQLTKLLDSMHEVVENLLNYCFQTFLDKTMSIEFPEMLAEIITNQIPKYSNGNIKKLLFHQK
In words: MMTV-LTR renilla luciferase reporter assay in A549 cells (direct transactivation of gene expression). To be noted: 6 hour at 37° C., read-out: maximal response relative to Dexamethasone (100%). On the procedure:
(§1) Pharmacological activity may be assessed in functional in vitro assays of glucocorticoid agonist activity.
The functional assay based on that described by R. J. H. Austin et al., Eur Resp J. (2002), 20, 1386-1392 measures the ability of compounds to directly transactivate gene expression. A549 cells stably transfected with a reporter gene containing the glucocorticoid responsive region of the mouse mammary tumour virus long terminal repeat (MMTV-LTR) coupled to renilla luciferase were treated with test compounds at appropriate doses for 6 hour at 37° C. The amount of luciferase activity present within the cells is then determined by measuring the light emitted following incubation with a suitable substrate.
(In general: A reporter such as luciferase makes a cellular process visible.)

Another assay deals with T2, Progesterone Receptor (Homo sapiens, UniProt P06401).
T2 construct: The human breast cancer cell line T47D has been reported to upregulate an endogenous alkaline phosphatase in response to progestins; endogenous in cells; host or cells: T47D cells
T2 sequence (P06401 1-933): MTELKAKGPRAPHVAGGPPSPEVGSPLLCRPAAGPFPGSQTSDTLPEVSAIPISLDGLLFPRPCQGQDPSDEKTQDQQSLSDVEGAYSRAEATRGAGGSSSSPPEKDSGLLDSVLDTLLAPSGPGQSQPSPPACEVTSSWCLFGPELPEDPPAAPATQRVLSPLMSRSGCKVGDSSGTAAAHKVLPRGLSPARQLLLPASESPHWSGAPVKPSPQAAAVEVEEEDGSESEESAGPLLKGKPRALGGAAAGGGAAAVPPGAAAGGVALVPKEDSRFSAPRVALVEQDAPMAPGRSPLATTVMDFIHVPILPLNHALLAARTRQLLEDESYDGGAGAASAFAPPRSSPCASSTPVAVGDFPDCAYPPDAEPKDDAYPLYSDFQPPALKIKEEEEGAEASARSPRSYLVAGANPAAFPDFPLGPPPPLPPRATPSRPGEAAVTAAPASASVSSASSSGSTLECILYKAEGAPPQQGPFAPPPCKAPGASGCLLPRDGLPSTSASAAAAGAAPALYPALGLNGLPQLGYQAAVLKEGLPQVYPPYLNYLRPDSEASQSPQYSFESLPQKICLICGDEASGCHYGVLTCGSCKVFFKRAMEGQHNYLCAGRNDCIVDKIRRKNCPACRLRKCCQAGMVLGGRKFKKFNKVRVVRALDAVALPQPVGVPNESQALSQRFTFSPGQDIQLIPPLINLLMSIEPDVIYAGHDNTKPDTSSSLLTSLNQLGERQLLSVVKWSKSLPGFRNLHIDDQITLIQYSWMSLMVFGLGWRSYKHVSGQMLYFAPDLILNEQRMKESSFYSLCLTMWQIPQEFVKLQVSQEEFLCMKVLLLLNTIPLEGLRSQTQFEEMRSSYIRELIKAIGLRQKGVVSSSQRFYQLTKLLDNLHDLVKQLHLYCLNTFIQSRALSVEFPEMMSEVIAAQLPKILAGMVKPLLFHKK
In words: Assay for Progesterone Receptor Activity: alkaline phosphatase upregulation in T47D cells. To be noted: 24 hours at 37° C. The procedure:
Assay for Progesterone Receptor Activity
The human breast cancer cell line T47D has been reported to upregulate an endogenous alkaline phosphatase in response to progestins (Di Lorenzo et al., Cancer Research (1991) 51, 4470-4475. T47D cells were seeded into 96 well plates at a density of 1×10^5 cells per well and grown overnight at 37° C. Steroids were dissolved in DMSO, added to the cells (final DMSO concentration 0.7%), and incubated for 24 hours at 37° C. The cells were then washed with PBS and lysed with RIPA buffer (1% IGEPAL, 0.5% Na deoxycholate, 0.1% SDS in phosphate buffered saline). Alkaline phosphatase activity was measured spectrophotometrically (405 nm) using p-nitrophenylphosphate (1.5 mg/ml) as a substrate dissolved in 1 M diethanolamine, 0.28M NaCl, 0.5 mM MgCl2. Dose response curves were constructed from which EC50 values were estimated.

The target of assay [2] is T1, glucocorticoid receptor. In words: NF-κB/ELAM promoter sPAP reporter assay in A549 cells, TNF stimulated (transrepressive activity of a glucocorticoid agonist). Also on record: A549 cells stably transfected with a reporter gene containing the NF-κB responsive elements; endogenous in cells; host or cells: A549 cells. To be noted: compound 1 hour at 37° C., then TNF 10 ng/ml for 16 hours, read-out: EC50 (transrepression, NF-κB sPAP reporter). On the procedure:
as §1
The functional assay based on that described by K. P. Ray et al., Biochem J. (1997), 328, 707-715 provides a measure of transrepressive activity of a glucocorticoid agonist. A549 cells stably transfected with a reporter gene containing the NF-κB responsive elements from the ELAM gene promoter coupled to sPAP (secreted alkaline phosphatase) are treated with test compounds at appropriate doses for 1 hour at 37° C. The cells are then stimulated with tumour necrosis factor (TNF, 10 ng/ml) for 16 hours, at which time the amount of alkaline phosphatase produced is measured by a standard colourimetric assay. Dose response curves are constructed from which EC50 values may be estimated.

A word on the EC50: it is the concentration giving half of the maximal effect. For `C[C@@H]1C[C@H]2[C@@H]3C[C@H](F)C4=CC(=O)C=C[C@]4(C)[C@@]3(F)[C@@H](O)C[C@]2(C)[C@@]1(OC(=O)c1ccc(C#N)cc1)C(=O)OCC#N` [Example 8, 17α-(4-Cyanobenzoyl)oxy-6α,9α-difluoro-11β-hydroxy-16α-methyl-3-oxo-androsta-1,4-diene-17β-carboxylic Acid Cyanomethyl Ester], the Emax at glucocorticoid receptor [1] is less than 35%. The EC50 at Progesterone Receptor is more than 100 nM; at glucocorticoid receptor [2], not above 0.1 nM.
Turning to `C[C@@H]1C[C@H]2[C@@H]3C[C@H](F)C4=CC(=O)C=C[C@]4(C)[C@@]3(F)[C@@H](O)C[C@]2(C)[C@@]1(OC(=O)c1cccc(SC(F)F)c1)C(=O)SCC#N` [Example 25, 6α,9α-Difluoro-17α-(3-(difluoromethylthio)benzoyl)oxy-11β-hydroxy-16α-methyl-3-oxo-androsta-1,4-diene-17β-carbothioic Acid S-cyanomethyl Ester], the Emax at glucocorticoid receptor [1] was less than 35%. For the same molecule, at Progesterone Receptor, the EC50 is more than 100 nM.
On to `CC(C)c1nc(C(=O)O[C@]2(C(=O)OCC#N)[C@H](C)C[C@H]3[C@@H]4C[C@H](F)C5=CC(=O)C=C[C@]5(C)[C@@]4(F)[C@@H](O)C[C@@]32C)cs1` [Example 11, 6α,9α-Difluoro-11β-hydroxy-17α-(2-isopropyl-1,3-thiazole-4-carbonyl)oxy-16α-methyl-3-oxo-androsta-1,4-diene-17β-carboxylic Acid Cyanomethyl Ester], for which the Emax on glucocorticoid receptor [1] is less than 35%. Also, the EC50 on Progesterone Receptor is more than 100 nM.
On to `C[C@@H]1C[C@H]2[C@@H]3C[C@H](F)C4=CC(=O)C=C[C@]4(C)[C@@]3(F)[C@@H](O)C[C@]2(C)[C@@]1(OC(=O)C1C(C)(C)C1(Cl)Cl)C(=O)OCC#N` (stereo partly drawn) [Example 20, 17α-(2,2-Dichloro-3,3-dimethylclopropylcarbonyl)oxy-6α,9α-difluoro-11β-hydroxy-16α-methyl-3-oxo-androsta-1,4-diene-17β-carboxylic Acid Cyanomethyl Ester], for which the Emax at glucocorticoid receptor [1] was less than 35%. The EC50 at Progesterone Receptor is more than 100 nM; on glucocorticoid receptor [2], not above 0.1 nM.
Turning to `C[C@@H]1C[C@H]2[C@@H]3C[C@H](F)C4=CC(=O)CC[C@]4(C)[C@@]3(F)[C@@H](O)C[C@]2(C)[C@@]1(OC(=O)C1C(C)(C)C1(C)C)C(=O)OCC#N` [Example 18, 6α,9α-Difluoro-11β-hydroxy-16α-methyl-3-oxo-17α-(2,2,3,3-tetramethycyclopropylcarbonyl)oxy-androst-4-ene-17 b-carboxylic Acid Cyanomethyl Ester], the Emax at glucocorticoid receptor [1] is less than 35%. Moreover, at Progesterone Receptor, the EC50 is more than 100 nM.
Turning to `CSc1ccc(C(=O)O[C@]2(C(=O)OCC#N)[C@H](C)C[C@H]3[C@@H]4C[C@H](F)C5=CC(=O)C=C[C@]5(C)[C@@]4(F)[C@@H](O)C[C@@]32C)s1` [Example 15, 6α,9α-Difluoro-11β-hydroxy-16α-methyl-17α-(5-methylthio-thiophene-2-carbonyl)oxy-3-oxo-androsta-1,4-diene-17β-carboxylic Acid Cyanomethyl Ester], the Emax on glucocorticoid receptor [1] was less than 35%. Also, the concentration for a half-maximal effect (EC50) on glucocorticoid receptor [2] was not above 0.1 nM.
For the molecule `C[C@@H]1C[C@H]2[C@@H]3C[C@H](F)C4=CC(=O)C=C[C@]4(C)[C@@]3(F)[C@@H](O)C[C@]2(C)[C@@]1(OC(=O)c1ccc(S(C)(=O)=O)s1)C(=O)SCC#N` [Example 23, 6α,9α-Difluoro-11β-hydroxy-16α-methyl-17α-(5-methylsulphonyl-thiophene-2-carbonyl)oxy-3-oxo-androsta-1,4-diene-17β-carbothioic Acid S-cyanomethyl Ester], the Emax at glucocorticoid receptor [1] is less than 35%. For the same molecule, the EC50 at Progesterone Receptor was more than 100 nM.
